The subject of experiment [1] is human iPS cell-derived myocardial cells. The experiment can be described thus: Heart rate of myocardial cells by MEA, serum-free culture medium with isoproterenol and carbachol added. It counts as cell-based. The settings on record: serum-free culture medium with 1 μmol/L isoproterenol and 3 μmol/L carbachol; cumulative drug concentrations, 20 minutes after addition; vs medium control. The method, then: (§1) Example 4: Method and results of evaluating increase in heart rate by muscarinic receptor inhibitor (atropine) using serum-free culture medium to which adrenergic receptor agonist (isoproterenol) and muscarinic receptor agonist (carbachol) are added Human iPS cell-derived myocardial cells (iCell myocardial cells 2.0, manufactured by FUJIFILM Cellular Dynamics, Inc.) in a frozen state were thawed, suspended in a thawing culture medium (iCell myocardial cell thawing culture medium, manufactured by FUJIFILM Cellular Dynamics, Inc.), and then seeded at a cell density of 50,000 cells per well on a MEA plate (Cyto View MEA 48, manufactured by Axion BioSystems, Inc.). The seeding density of myocardial cells in the vicinity of the electrode was 2,725 cells/mm^2. After the plate was allowed to stand in a CO2 incubator for several hours, a maintenance culture medium (iCell myocardial cell maintenance culture medium, manufactured by FUJIFILM Cellular Dynamics, Inc.) containing serum was added, and the myocardial cells were cultured in the CO2 incubator for about one week. The culture medium was exchanged with a serum-free culture medium (a myocardial cell serum-free assay culture medium, manufactured by FUJIFILM Cellular Dynamics, Inc.) on the day before the measurement.
(§2) On the day of measurement, the MEA plate on which human iPS cell-derived myocardial cells were cultured was placed in an MEA system (Maestro Pro, manufactured by Axion BioSystems, Inc.), 1 μmol/L of isoproterenol (manufactured by Tokyo Chemical Industry Co., Ltd.) and 3 μmol/L of carbachol (manufactured by Tokyo Chemical Industry Co., Ltd.) were added to the culture medium, and then the extracellular potential was measured after 20 minutes from the addition (medium control, atropine concentration: 0 μmol/L). Subsequently, 0.01 μmol/L of atropine (manufactured by Tokyo Chemical Industry Co., Ltd.) was added to the MEA plate, and then the extracellular potential was measured after 20 minutes from the addition. Similarly, atropine was added to give concentrations of 0.1 μmol/L and 1 μmol/L, and then the extracellular potential was measured at each concentration.
From the measurement results of the extracellular potential, the interval between sharp peaks indicating depolarization of human iPS cell-derived myocardial cells was taken as the beating time (sec), and the heart rate (/min)=60/beating time (sec) was calculated. The addition of atropine was confirmed to result in an increase in heart rate of up to 51% (FIG. 7).
In the same manner as in Example 4, evaluation was carried out using an MEA plate on which human iPS cell-derived myocardial cells were cultured. Specifically, the same operations as in Example 4 were carried out except that atropine added in Example 4 was changed to tiotropium (manufactured by Tokyo Chemical Industry Co., Ltd.) and the concentration of tiotropium added was 1 pmol/L, 10 pmol/L, 100 pmol/L, and 1,000 pmol/L.
In the same manner as in Example 4, evaluation was carried out using an MEA plate on which human iPS cell-derived myocardial cells were cultured. Specifically, the same operations as in Example 4 were carried out except that atropine added in Example 4 was changed to glycopyrronium (manufactured by Tokyo Chemical Industry Co., Ltd.) and the concentration of glycopyrronium added was 0.01 nmol/L, 0.1 nmol/L, 1 nmol/L, and 10 nmol/L.
In the same manner as in Example 4, evaluation was carried out using an MEA plate on which human iPS cell-derived myocardial cells were cultured. Specifically, the same operations as in Example 4 were carried out except that the atropine added in Example 4 was changed to propranolol (manufactured by FUJIFILM Wako Pure Chemical Corporation) and the concentration of propranolol added was 0.1 nmol/L, 1 nmol/L, 10 nmol/L, and 100 nmol/L.
In the same manner as in Example 4, evaluation was carried out using an MEA plate on which human iPS cell-derived myocardial cells were cultured. […]

The test system is the same in experiment [2]. Put plainly: Heart rate of myocardial cells by MEA, serum-free culture medium with isoproterenol added. As to conditions: serum-free culture medium with 1 μmol/L isoproterenol; cumulative drug concentrations, 20 minutes after addition; vs medium control. It counts as cell-based. On the procedure:
as §1, with “1:” for “4:”, “decrease” for “increase”, “agonist (carbachol)” for “inhibitor (atropine)”, “is” for “and muscarinic receptor agonist (carbachol) are”, “2,671” for “2,725”, “The culture medium was exchanged with a serum-free culture medium (a myocardial cell serum-free assay culture medium, manufactured by FUJIFILM Cellular Dynamics, Inc.) on the day before the measurement.” left out
as §2, with “Ltd.) was” for “Ltd.) and 3 μmol/L of carbachol (manufactured by Tokyo Chemical Industry Co., Ltd.) were”, “control, carbachol” for “control, atropine”, “of carbachol” for “of atropine”, “Similarly, carbachol” for “Similarly, atropine”, “0.1 μmol/L, 1 μmol/L,” for “0.1 μmol/L”, “and 10” for “and 1”
From the measurement results of the extracellular potential, the interval between sharp peaks indicating depolarization of human iPS cell-derived myocardial cells was taken as the beating time (sec), and the heart rate (/min)=60/ beating time (sec) was calculated. […]

These results are taken from patent US20250354979A1, “DRUG EVALUATION METHOD, REAGENT, AND KIT” (FUJIFILM Corporation, priority 2023, published 2025).

For `CC(=O)Oc1ccccc1C(=O)O` [aspirin], the “increase in heart rate” value in experiment [1] is reported as “at most 17%”.
For `CC(C)NCC(O)COc1ccc(CC(N)=O)cc1` (stereo not shown) [atenolol], in experiment [1], the “decrease in heart rate” value is given as “up to 22%”.
As for `CC1OC2(CS1)CN1CCC2CC1` (stereo not shown) [cevimeline], in experiment [2], the “decrease in heart rate” value was “up to 26%”.
On to `C[N+]1(C)CCC(OC(=O)C(O)(c2ccccc2)C2CCCC2)C1` (stereo not shown) [glycopyrronium], for which the “increase in heart rate” value in experiment [1] is “up to 36%”.
Consider `CC[C@@H]1C(=O)OC[C@@H]1Cc1cncn1C` [pilocarpine], for which, in experiment [2], the “decrease in heart rate” value is recorded as “up to 15%”.
In the case of `CC(C)NCC(O)COc1cccc2ccccc12` (stereo not shown) [propranolol], the “decrease in heart rate” value in experiment [1] is listed as “up to 28%”.
On to `C[N+]1(C)[C@@H]2C[C@@H](OC(=O)C(O)(c3cccs3)c3cccs3)C[C@H]1[C@@H]1O[C@@H]12` [tiotropium], for which the “increase in heart rate” value in experiment [1] is listed as “up to 36%”.
